The assay deals with PI3K delta (Homo sapiens (Human), UniProt O00329). Kind of assay: Luciferase-coupled chemiluminescence kinase assay (KinaseGlo, ATP consumption). Format: biochemical. The method, then:
Kinase activity and compound inhibition were investigated using one or more of the assay formats described below. The ATP concentrations used in the various assays were approximately equal to or less than the KM for each of the respective kinases. Dose-response experiments were performed using an intra-plate dilution scheme with 10 different inhibitor concentrations in a 384-well microtiter plate. […] Typically N should approximate unity. Curve fitting was performed using XLFit or ActivityBase. Luciferase-Coupled Chemiluminescence Assay Protocol
Kinase activity is measured as the percent of ATP consumed following the kinase reaction using luciferase-luciferin-coupled chemiluminescence. […] Kinase reactions were initiated by combining test compounds, kinase, and ATP in a 20 μL volume (6 μL volume for 1536-well plate). The reaction mixture was incubated at ambient temperature for 2 h. Following the kinase reaction, a 20 μL (or 3 μL for 1536-well plate) aliquot of KinaseGlo (Promega) was added and the chemiluminescence signal measured using an EnVision plate reader (Perkin Elmer).
On the technique in general: In Kinase-Glo more light means more ATP remaining.

For orientation: IC50 means the concentration needed to halve the response being measured. A higher IC50 goes with a need for much substance.

Sequence of PI3K delta (O00329 whole entry): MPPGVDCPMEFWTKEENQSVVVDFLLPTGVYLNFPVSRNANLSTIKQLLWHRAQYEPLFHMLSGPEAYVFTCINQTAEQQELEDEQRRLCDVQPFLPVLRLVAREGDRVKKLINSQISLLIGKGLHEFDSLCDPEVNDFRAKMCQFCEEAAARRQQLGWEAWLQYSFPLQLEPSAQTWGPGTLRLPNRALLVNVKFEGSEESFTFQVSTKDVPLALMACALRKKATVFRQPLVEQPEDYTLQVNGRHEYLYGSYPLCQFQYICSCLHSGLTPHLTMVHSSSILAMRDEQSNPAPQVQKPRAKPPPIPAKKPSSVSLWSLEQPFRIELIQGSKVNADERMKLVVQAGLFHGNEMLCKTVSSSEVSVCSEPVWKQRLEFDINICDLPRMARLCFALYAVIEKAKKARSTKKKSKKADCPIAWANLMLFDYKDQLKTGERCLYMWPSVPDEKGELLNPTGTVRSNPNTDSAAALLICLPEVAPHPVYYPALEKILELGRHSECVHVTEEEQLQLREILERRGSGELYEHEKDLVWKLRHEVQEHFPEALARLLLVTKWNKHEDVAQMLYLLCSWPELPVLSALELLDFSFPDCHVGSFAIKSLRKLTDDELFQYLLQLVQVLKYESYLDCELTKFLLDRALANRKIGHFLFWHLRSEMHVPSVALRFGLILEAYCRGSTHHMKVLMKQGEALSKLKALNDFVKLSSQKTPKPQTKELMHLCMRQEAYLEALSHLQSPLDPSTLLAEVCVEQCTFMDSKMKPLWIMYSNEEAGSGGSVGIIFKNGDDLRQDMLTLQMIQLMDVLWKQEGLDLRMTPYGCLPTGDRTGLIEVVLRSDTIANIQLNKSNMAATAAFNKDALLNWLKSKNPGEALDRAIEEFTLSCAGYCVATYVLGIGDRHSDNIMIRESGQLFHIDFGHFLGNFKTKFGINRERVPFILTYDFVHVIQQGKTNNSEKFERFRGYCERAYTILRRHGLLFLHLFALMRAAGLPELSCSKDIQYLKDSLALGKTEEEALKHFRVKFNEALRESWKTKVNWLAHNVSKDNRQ
Sequence of PI3K delta (P27986 whole entry partner): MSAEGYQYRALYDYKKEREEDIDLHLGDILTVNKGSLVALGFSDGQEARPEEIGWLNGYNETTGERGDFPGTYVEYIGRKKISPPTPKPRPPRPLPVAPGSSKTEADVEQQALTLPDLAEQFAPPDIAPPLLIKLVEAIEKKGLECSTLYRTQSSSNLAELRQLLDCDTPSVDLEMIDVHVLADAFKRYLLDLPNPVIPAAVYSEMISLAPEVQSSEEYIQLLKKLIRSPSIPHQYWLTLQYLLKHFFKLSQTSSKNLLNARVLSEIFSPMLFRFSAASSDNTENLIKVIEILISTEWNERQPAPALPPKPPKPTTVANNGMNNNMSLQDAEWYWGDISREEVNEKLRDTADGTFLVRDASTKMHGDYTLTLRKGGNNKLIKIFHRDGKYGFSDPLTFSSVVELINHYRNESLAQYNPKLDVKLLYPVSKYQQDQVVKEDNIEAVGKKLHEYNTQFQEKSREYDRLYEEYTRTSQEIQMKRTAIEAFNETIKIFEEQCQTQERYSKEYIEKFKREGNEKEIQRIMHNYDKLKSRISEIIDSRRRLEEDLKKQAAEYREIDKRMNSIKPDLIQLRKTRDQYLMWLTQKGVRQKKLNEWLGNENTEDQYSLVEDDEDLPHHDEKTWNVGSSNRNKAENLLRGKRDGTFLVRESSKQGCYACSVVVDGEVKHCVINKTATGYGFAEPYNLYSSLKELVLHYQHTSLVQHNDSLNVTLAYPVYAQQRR

Consider `Cc1ccccc1-c1cc2ccccc2nc1Cn1cnc2c(N)ncnc21` [Compound 179, 9-{[3-(2-methylphenyl)quinolin-2-yl]methyl}-9H-purin-6-amine], for which the IC50 was in the range of 500 to 1500 nM. `CC(=O)N1CCN(c2nc3c(C)cccc3cc2CNC(=O)c2nccnc2N)CC1` [Compound 124, N-{[2-(4-acetylpiperazin-1-yl)-8-methylquinolin-3-yl]methyl}-3-aminopyrazine-2-carboxamide]: the IC50 was 250 to 500 nM.

As for `Cc1cccc2cc(CNC(=O)c3nccnc3N)c(N3CCCN(C(=O)Cn4ccnc4)CC3)nc12` [Compound 54, 3-amino-N-({2-[4-(1H-imidazol-1-ylacetyl)-1,4-diazepan-1-yl]-8-methylquinolin-3-yl}methyl)pyrazine-2-carboxamide], the IC50 is 500 to 1500 nM. Take `Nc1nccnc1C(=O)NCc1nc2ccccc2cc1-c1cccc(CN2CCOCC2)c1` [Compound 72, 3-amino-N-({3-[3-(morpholin-4-ylmethyl)phenyl]quinolin-2-yl}methyl)pyrazine-2-carboxamide]: the IC50 fell in the range of 500 to 1500 nM. In turn, `Cc1cccc2cc(CNC(=O)c3nccnc3N)c(N3CCCN(C)CC3)nc12` [Compound 140, 3-amino-N-{[8-methyl-2-(4-methyl-1,4-diazepan-1-yl)quinolin-3-yl]methyl}pyrazine-2-carboxamide] gave an IC50 of 250 to 500 nM.

Take `Cc1cccc2cc(CNC(=O)c3nccnc3N)c(N3CCCN(C(=O)Cn4ccnc4C)CC3)nc12` [Compound 55, 3-amino-N-[(8-methyl-2-{4-[(2-methyl-1H-imidazol-1-yl)acetyl]-1,4-diazepan-1-yl}quinolin-3-yl)methyl]pyrazine-2-carboxamide]: the 50% inhibitory concentration (IC50) is 500 to 1500 nM. With `Cc1cccc2cc(CNC(=O)c3nccnc3N)c(N3CCCN(Cc4nccn4C)CC3)nc12` [Compound 62, 3-amino-N-[(8-methyl-2-{4-[(1-methyl-1H-imidazol-2-yl)methyl]-1,4-diazepan-1-yl}quinolin-3-yl)methyl]pyrazine-2-carboxamide], the IC50 lay within 500 to 1500 nM. The compound `Cc1ccccc1-c1c(Cn2cnc3ncnc(N)c32)nc2ccccc2c1C` [Compound 169, 7-{[4-methyl-3-(2-methylphenyl)quinolin-2-yl]methyl}-7H-purin-6-amine] returned an IC50 of 500 to 1500 nM. `Cc1cccc2cc(Cn3cnc4c(N)ncnc43)c(N3CCOCC3)nc12` [Compound 177, 9-[(8-methyl-2-morpholin-4-ylquinolin-3-yl)methyl]-9H-purin-6-amine] yielded an IC50 of 50 to 250 nM. For the compound `Cc1cccc2cc(CNC(=O)c3nccnc3N)c(N(C)CCN(C)C(=O)Cn3cnnn3)nc12` [Compound 42, 3-amino-N-{[8-methyl-2-(methyl{2-[methyl(1H-tetrazol-1-ylacetyl)amino]ethyl}amino)quinolin-3-yl]methyl}pyrazine-2-carboxamide], the IC50 is less than 50 nM. On to `Cc1cccc2cc(Cn3cnc4c(N)ncnc43)c(N3CC4CC3CN4C)nc12` (stereo not drawn) [Compound 150, 9-{[8-methyl-2-(5-methyl-2,5-diazabicyclo[2.2.1]hept-2-yl)quinolin-3-yl]methyl}-9H-purin-6-amine], for which the 50% inhibitory concentration (IC50) fell in the range of 500 to 1500 nM. Compound `Cc1cccc2cc(Cn3cnc4c(N)ncnc43)c(N3CCN(C)CC3)nc12` [Compound 173, 9-{[8-methyl-2-(4-methylpiperazin-1-yl)quinolin-3-yl]methyl}-9H-purin-6-amine] gave an IC50 of 50 to 250 nM. With `Cc1cccc2cc(CNc3cccc4c3OCCO4)c(-c3ccccc3Cl)nc12` [Compound 5], the IC50 lay within 500 to 1500 nM. The value for `CNCCN(C)c1nc2c(C)cccc2cc1CN1CCOCC1` [Compound 21, N,N′-dimethyl-N-[8-methyl-3-(morpholin-4-ylmethyl)quinolin-2-yl]ethane-1,2-diamine] was 500 to 1500 nM; that for `Cc1cccc2cc(CNc3ncnc4[nH]cnc34)c(N3CCNCC3)nc12` [Compound 37, N-[(8-methyl-2-piperazin-1-ylquinolin-3-yl)methyl]-9H-purin-6-amine] was less than 50 nM. `COCCN(C)c1nc2c(C)cccc2cc1CNC(=O)c1nccnc1N` [Compound 104, 3-amino-N-[(8-methyl-2-{methyl[2-(methyloxy)ethyl]amino}quinolin-3-yl)methyl]pyrazine-2-carboxamide]: the IC50 is 500 to 1500 nM. As for `COCCN(C)c1nc2c(C)cccc2cc1CNc1ncnc2[nH]cnc12` [Compound 25, N,8-dimethyl-N-[2-(methyloxy)ethyl]-3-[(9H-purin-6-ylamino)methyl]quinolin-2-amine], the IC50 was less than 50 nM.

Turning to `Cc1cccc2cc(CNC(=O)c3nccnc3N)c(-c3ccccc3Cl)nc12` [Compound 148, 3-amino-N-{[2-(2-chlorophenyl)-8-methylquinolin-3-yl]methyl}pyrazine-2-carboxamide], the IC50 fell in the range of 50 to 250 nM. With `Cc1cccc(-c2nc3c(C)cccc3cc2Cn2cnc3c(N)ncnc32)c1` [Compound 183, 9-{[8-methyl-2-(3-methylphenyl)quinolin-3-yl]methyl}-9H-purin-6-amine], the IC50 was in the range of 250 to 500 nM. Consider `Cc1cccc2cc(CNC(=O)c3nccnc3N)c(N(C)CCN(C)C(=O)CN(C)C)nc12` [Compound 114, 3-amino-N-({2-[{2-[(N,N-dimethylglycyl)(methyl)amino]ethyl}(methyl)amino]-8-methylquinolin-3-yl}methyl)pyrazine-2-carboxamide], for which the IC50 lay within 50 to 250 nM.

In turn, `Cc1cccc2cc(Cn3cnc4c(N)ncnc43)c(N3CCCC3C)nc12` (stereo not drawn) [Compound 170, 9-{[8-methyl-2-(2-methylpyrrolidin-1-yl)quinolin-3-yl]methyl}-9H-purin-6-amine] returned an IC50 of 50 to 250 nM. `COc1cccc(-c2nc3c(C)cccc3cc2Cn2cnc3c(N)ncnc32)c1` [Compound 185, 9-({8-methyl-2-[3-(methyloxy)phenyl]quinolin-3-yl}methyl)-9H-purin-6-amine] showed an IC50 of 250 to 500 nM. The figure for `Cc1cccc2cc(CNC(=O)c3nccnc3N)c(N3CCCN(Cc4cncn4C)CC3)nc12` [Compound 63, 3-amino-N-[(8-methyl-2-{4-[(1-methyl-1H-imidazol-5-yl)methyl]-1,4-diazepan-1-yl}quinolin-3-yl)methyl]pyrazine-2-carboxamide] is 50 to 250 nM. Take `COCCNc1nc2c(C)cccc2cc1Cn1cnc2c(N)ncnc21` [Compound 167, 3-[(6-amino-9H-purin-9-yl)methyl]-8-methyl-N-[2-(methyloyx)ethyl]quinolin-2-amine]: the IC50 lay within 500 to 1500 nM. Consider `Cc1ccccc1-c1cc2ccccc2nc1CNC(=O)c1cnc(N)nc1` [Compound 74, 2-amino-N-{[3-(2-methylphenyl)quinolin-2-yl]methyl}pyrimidine-5-carboxamide], for which the IC50 lay within 500 to 1500 nM. For the compound `Cc1cccc2cc(CNC(=O)c3nccnc3N)c(N(C)CCN(C)CC#N)nc12` [Compound 84, 3-amino-N-({2-[{2-[(cyanomethyl)(methyl)amino]ethyl}(methyl)amino]-8-methylquinolin-3-yl}methyl)pyrazine-2-carboxamide], the IC50 is 50 to 250 nM.

Take `Cc1cccc2cc(CNC(=O)c3nccnc3N)c(N(C)CCN(C)C(=O)c3cccnc3)nc12` [Compound 80, 3-amino-N-{[8-methyl-2-(methyl{2-[methyl(pyridin-3-ylcarbonyl)amino]ethyl}amino)quinolin-3-yl]methyl}pyrazine-2-carboxamide]: the IC50 lay in the range of 250 to 500 nM.

These data come from patent US9670212B2, “Inhibitors of PI3K-delta and methods of their use and manufacture” (Exelixis, Inc., priority 2010, dated 2017).
